# Data from ChEMBL document CHEMBL1201862, “PubChem BioAssay data set” (2004).
#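 Cultured in 96-well plates, cells were exposed to test compound for 48 hours across five concentrations. GI50 = concentration required for 50% inhibition of growth.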 Activity calls are given as the source filed them. Rule as the data show it: active = GI50 up to about 1.1 µM and inactive = higher.
# Columns and labels:
# Experiment in all cases: NCI-60 cell line screen, 48 h
# HOP-62 = test system: HOP-62
# NCI/ADR-RES = test system: NCI/ADR-RES
# MDA-N = test system: MDA-N
# RPMI-8226 = test system: RPMI-8226
# UACC-257 = test system: UACC-257
# Malme-3M = test system: Malme-3M
# TK-10 = test system: TK-10
# Hs-578T = test system: Hs-578T
# SN12C = test system: SN12C
# SW-620 = test system: SW-620
# DU-145 = test system: DU-145
# A498 = test system: A498
# KM12 = test system: KM12
# MDA-MB-231 = test system: MDA-MB-231
# EKVX = test system: EKVX
# PC-3 = test system: PC-3
# OVCAR-3 = test system: OVCAR-3
# SR = test system: SR
# T47D = test system: T47D
# HT-29 = test system: HT-29
# SNB-75 = test system: SNB-75
# LOX IMVI = test system: LOX IMVI
# COLO 205 = test system: COLO 205
# SNB-19 = test system: SNB-19
# UACC-62 = test system: UACC-62
# MOLT-4 = test system: MOLT-4
# HL-60 = test system: HL-60
# NCI-H226 = test system: NCI-H226
# U-251 = test system: U-251
# BT-549 = test system: BT-549
# CCRF-CEM = test system: CCRF-CEM
# K562 = test system: K562
# M14 = test system: M14
# HCT-15 = test system: HCT-15
# NCI-H460 = test system: NCI-H460
# A549 = test system: A549
# MDA-MB-435 = test system: MDA-MB-435
# 786-0 = test system: 786-0
# SK-MEL-5 = test system: SK-MEL-5
# SF-295 = test system: SF-295
# OVCAR-4 = test system: OVCAR-4
# MCF7 = test system: MCF7
# SK-OV-3 = test system: SK-OV-3
# CAKI-1 = test system: CAKI-1
# NCI-H23 = test system: NCI-H23
# RXF 393 = test system: RXF 393
# NCI-H522 = test system: NCI-H522
# SF-268 = test system: SF-268
# ACHN = test system: ACHN
# SK-MEL-2 = test system: SK-MEL-2
# HOP-92 = test system: HOP-92
# HCT-116 = test system: HCT-116
# OVCAR-8 = test system: OVCAR-8
# SF-539 = test system: SF-539
# UO-31 = test system: UO-31
# OVCAR-5 = test system: OVCAR-5
# SK-MEL-28 = test system: SK-MEL-28
# IGROV-1 = test system: IGROV-1
# HCC 2998 = test system: HCC 2998
structure (smiles),measurement,setting,value
Cc1cnc2nc(-c3ccc(F)cc3)cc(O)c2c1,GI50,HOP-62,37.5 µM (inactive)
same,GI50,NCI/ADR-RES,27.2 µM (inactive)
same,GI50,MDA-N,2.72 µM (inactive)
same,GI50,RPMI-8226,21.1 µM (inactive)
same,GI50,UACC-257,> 75.2 µM (inactive)
same,GI50,Malme-3M,33.9 µM (inactive)
same,GI50,TK-10,48 µM (inactive)
same,GI50,Hs-578T,24.1 µM (inactive)
same,GI50,SN12C,67.6 µM (inactive)
same,GI50,SW-620,19 µM (inactive)
same,GI50,DU-145,43 µM (inactive)
same,GI50,A498,25.4 µM (inactive)
same,GI50,KM12,5.66 µM (inactive)
same,GI50,MDA-MB-231,> 73.1 µM (inactive)
same,GI50,EKVX,30.9 µM (inactive)
same,GI50,PC-3,28.6 µM (inactive)
same,GI50,OVCAR-3,27.5 µM (inactive)
same,GI50,SR,5.14 µM (inactive)
same,GI50,T47D,39.2 µM (inactive)
same,GI50,HT-29,26.4 µM (inactive)
same,GI50,SNB-75,20.1 µM (inactive)
same,GI50,LOX IMVI,40.4 µM (inactive)
same,GI50,COLO 205,7.64 µM (inactive)
same,GI50,SNB-19,35.4 µM (inactive)
same,GI50,UACC-62,21.4 µM (inactive)
same,GI50,MOLT-4,34.1 µM (inactive)
same,GI50,HL-60,3.26 µM (inactive)
same,GI50,NCI-H226,27.1 µM (inactive)
same,GI50,U-251,23.1 µM (inactive)
same,GI50,BT-549,> 100 µM (inactive)
same,GI50,CCRF-CEM,25.6 µM (inactive)
same,GI50,K562,4.52 µM (inactive)
same,GI50,M14,34.6 µM (inactive)
same,GI50,HCT-15,7.66 µM
same,GI50,NCI-H460,19.1 µM (inactive)
same,GI50,A549,42.4 µM (inactive)
same,GI50,MDA-MB-435,2.81 µM (inactive)
same,GI50,786-0,32.5 µM (inactive)
same,GI50,SK-MEL-5,26.6 µM (inactive)
same,GI50,SF-295,25.9 µM (inactive)
same,GI50,OVCAR-4,48.6 µM (inactive)
same,GI50,MCF7,47.5 µM (inactive)
same,GI50,SK-OV-3,21.6 µM (inactive)
same,GI50,CAKI-1,50.9 µM (inactive)
same,GI50,NCI-H23,41.3 µM (inactive)
same,GI50,RXF 393,31.3 µM (inactive)
same,GI50,NCI-H522,13 µM (inactive)
same,GI50,SF-268,67.9 µM (inactive)
same,GI50,ACHN,57.5 µM (inactive)
same,GI50,SK-MEL-2,25.4 µM (inactive)
same,GI50,HOP-92,33.2 µM (inactive)
same,GI50,HCT-116,18.7 µM (inactive)
same,GI50,OVCAR-8,66.4 µM (inactive)
same,GI50,SF-539,26.6 µM (inactive)
same,GI50,UO-31,48.2 µM (inactive)
same,GI50,OVCAR-5,51.4 µM (inactive)
same,GI50,SK-MEL-28,> 87.1 µM (inactive)
same,GI50,IGROV-1,29.2 µM (inactive)
same,GI50,HCC 2998,43.5 µM (inactive)
O=[N+]([O-])C(C(Cl)=C(Cl)Cl)=C(n1nnc2ccccc21)n1nnc2ccccc21,GI50,HOP-62,35.7 µM (inactive)
same,GI50,NCI/ADR-RES,32.4 µM (inactive)
same,GI50,MDA-N,23.9 µM (inactive)
same,GI50,RPMI-8226,24.8 µM (inactive)
same,GI50,UACC-257,48.9 µM (inactive)
same,GI50,Malme-3M,21.7 µM (inactive)
same,GI50,TK-10,46.1 µM (inactive)
same,GI50,Hs-578T,35.8 µM (inactive)
same,GI50,SN12C,22.6 µM (inactive)
same,GI50,SW-620,5.21 µM (inactive)
same,GI50,DU-145,> 86.3 µM (inactive)
same,GI50,A498,> 57.9 µM (inactive)
same,GI50,KM12,> 58.5 µM (inactive)
same,GI50,MDA-MB-231,20.4 µM (inactive)
same,GI50,EKVX,> 59.3 µM (inactive)
same,GI50,PC-3,37.1 µM (inactive)
same,GI50,OVCAR-3,24.9 µM (inactive)
same,GI50,SR,8.45 µM (inactive)
same,GI50,T47D,40.7 µM (inactive)
same,GI50,HT-29,26 µM (inactive)
same,GI50,SNB-75,> 44.3 µM (inactive)
same,GI50,LOX IMVI,24.4 µM (inactive)
same,GI50,COLO 205,19.5 µM (inactive)
same,GI50,SNB-19,> 86.7 µM (inactive)
same,GI50,UACC-62,16.1 µM (inactive)
same,GI50,MOLT-4,9.33 µM (inactive)
same,GI50,HL-60,3.94 µM (inactive)
same,GI50,NCI-H226,> 58.7 µM (inactive)
same,GI50,U-251,36.1 µM (inactive)
same,GI50,BT-549,> 51.1 µM (inactive)
same,GI50,CCRF-CEM,18.6 µM (inactive)
same,GI50,K562,11.5 µM (inactive)
same,GI50,M14,30.7 µM (inactive)
same,GI50,HCT-15,25.9 µM
same,GI50,NCI-H460,51.6 µM (inactive)
same,GI50,A549,48.5 µM (inactive)
same,GI50,MDA-MB-435,27.9 µM (inactive)
same,GI50,786-0,13.2 µM (inactive)
same,GI50,SK-MEL-5,34.2 µM (inactive)
same,GI50,SF-295,> 56 µM (inactive)
same,GI50,OVCAR-4,36.9 µM (inactive)
same,GI50,MCF7,28.1 µM (inactive)
same,GI50,SK-OV-3,> 43.6 µM (inactive)
same,GI50,CAKI-1,30.3 µM (inactive)
same,GI50,NCI-H23,37.6 µM (inactive)
same,GI50,RXF 393,20.2 µM (inactive)
same,GI50,NCI-H522,18.5 µM (inactive)
same,GI50,SF-268,30.1 µM (inactive)
same,GI50,ACHN,25.6 µM (inactive)
same,GI50,SK-MEL-2,42 µM (inactive)
same,GI50,HOP-92,43.5 µM (inactive)
same,GI50,HCT-116,20.5 µM (inactive)
same,GI50,OVCAR-8,21.5 µM (inactive)
same,GI50,SF-539,28.2 µM (inactive)
same,GI50,UO-31,25.6 µM (inactive)
same,GI50,OVCAR-5,47.1 µM (inactive)
same,GI50,SK-MEL-28,23.5 µM (inactive)
same,GI50,IGROV-1,36.6 µM (inactive)
same,GI50,HCC 2998,49.1 µM (inactive)
